The results in this text go back to publication PMC3813382 (The Journal of General Physiology, 2013).

One may read the EC50 as the concentration giving half of the maximal effect. Higher therefore signals lower potency in that assay.

For test [1], the system named is endogenous currents present in uninjected oocytes. In words: Effect of NFA on uninjected oocytes. In kind it is cell-based, Xenopus laevis.
In another test the target is T1, L209T Slo2.1 channels (Homo sapiens, UniProt Q6UVM3, L209T).
T1 sequence (Q6UVM3 1-1135 L209T): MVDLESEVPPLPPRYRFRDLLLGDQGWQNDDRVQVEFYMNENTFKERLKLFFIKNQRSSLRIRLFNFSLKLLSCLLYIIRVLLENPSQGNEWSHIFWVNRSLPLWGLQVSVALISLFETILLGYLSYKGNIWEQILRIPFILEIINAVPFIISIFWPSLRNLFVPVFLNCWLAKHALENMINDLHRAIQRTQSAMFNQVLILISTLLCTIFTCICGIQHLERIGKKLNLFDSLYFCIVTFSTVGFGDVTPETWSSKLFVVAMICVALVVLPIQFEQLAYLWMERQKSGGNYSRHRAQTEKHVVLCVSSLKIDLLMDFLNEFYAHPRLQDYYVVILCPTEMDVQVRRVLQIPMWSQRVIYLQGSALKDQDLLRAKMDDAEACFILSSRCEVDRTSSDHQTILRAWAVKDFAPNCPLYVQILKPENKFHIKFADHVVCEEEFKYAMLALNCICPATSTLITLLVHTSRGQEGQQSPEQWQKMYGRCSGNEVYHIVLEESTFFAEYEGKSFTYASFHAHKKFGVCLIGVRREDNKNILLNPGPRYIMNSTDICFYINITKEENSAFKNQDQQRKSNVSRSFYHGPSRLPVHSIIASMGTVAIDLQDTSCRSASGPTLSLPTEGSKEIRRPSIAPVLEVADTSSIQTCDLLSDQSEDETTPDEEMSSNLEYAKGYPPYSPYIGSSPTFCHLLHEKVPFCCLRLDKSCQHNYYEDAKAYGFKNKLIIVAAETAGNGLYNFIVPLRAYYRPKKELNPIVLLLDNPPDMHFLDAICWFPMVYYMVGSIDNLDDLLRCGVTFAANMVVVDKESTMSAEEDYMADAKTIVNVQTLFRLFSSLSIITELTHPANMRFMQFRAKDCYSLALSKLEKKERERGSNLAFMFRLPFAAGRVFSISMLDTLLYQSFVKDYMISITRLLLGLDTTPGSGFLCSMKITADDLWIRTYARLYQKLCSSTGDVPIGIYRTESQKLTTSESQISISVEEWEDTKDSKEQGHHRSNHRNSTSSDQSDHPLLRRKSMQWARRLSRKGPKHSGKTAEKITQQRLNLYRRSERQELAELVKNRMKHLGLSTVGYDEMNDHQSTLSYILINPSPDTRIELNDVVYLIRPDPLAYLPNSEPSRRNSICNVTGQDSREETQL
Kind of test: Activation of ISlo2.1 by NFA, two-electrode voltage clamp in oocytes. In kind it is cell-based. (In general: In two-electrode clamp one electrode senses voltage and the other passes current.)

A further test deals with T2, M262A Slo2.1 channels (Homo sapiens, UniProt Q6UVM3, M262A).
T2 sequence (Q6UVM3 1-1135 M262A): T1 sequence (Q6UVM3 1-1135 L209T) with T209L, M262A
The description is as above. It counts as cell-based.

Molecules are shown by their SMILES. Residue numbers refer to the chain shown, from its start. “Also recorded” adds a separate entry of the source.

`O=C(O)c1cccnc1Nc1cccc(C(F)(F)F)c1` [NFA, niflumic acid]: the “effect on endogenous currents in uninjected oocytes” value is on record as “reduced” in test [1] (1 mM NFA, I-Vt relationships); “increased; also recorded: activated a relatively small endogenous current” in test [1] (6 mM NFA, I-Vt relationships); “slightly reduced” in test [1] (NFA at concentrations up to 1 mM). The EC50 was 106 µM on L209T Slo2.1 channels and 660 ± 130 µM at M262A Slo2.1 channels. In addition, the figures for the “Hill coefficient nH of NFA activation” value at L209T Slo2.1 channels (L209T) and at M262A Slo2.1 channels (M262A) were 1.39 ± 0.12 and 1.4 ± 0.06, respectively. The “NFA sensitivity of L209T relative to WT Slo2.1” value at L209T Slo2.1 channels (L209T vs WT) is on record as 20 fold.
